{
  "source": "patent US20250161216A1",
  "about": "“CATIONIC LIPID ANALOGUES, COMPOSITIONS AND USES THEREOF” (GUANGZHOU LIDE BIOMEDICINE TECHNOLOGY CO., LTD., priority 2022, published 2025)",
  "key": {"C57BL/6 mice [1]": {"test_system": "C57BL/6 mice", "experiment": "In vivo expression level of Luciferase-mRNA delivered by intramuscular injection (bioluminescence imaging)", "conditions": "mRNA-loaded nanoparticles, intramuscular (leg muscle), 5 μg Luciferase-mRNA, 6 hours", "procedure": "(§1) Luciferase-mRNA was used as an mRNA model; and the cationic lipid analogues of Examples 1-5 were used to prepare drug-loaded nanoparticles according to the method of Example 6.\n(§2) 100 μL of nanoparticles containing 5 μg Luciferase-mRNA or the drug-loaded nanoparticles prepared above were injected into the leg muscles of 6-8 week-old C57BL/6 mice, and 200 μL of 1×PBS solution containing 3 mg D-Luciferin potassium salt was intraperitoneally injected into the mice 6 hours later. After waiting for 10 minutes, an in vivo expression level of the mRNA was evaluated by bioluminescence imaging."}, "C57BL/6 mice [2]": {"test_system": "C57BL/6 mice", "experiment": "In vivo expression level of Luciferase-mRNA delivered by intravenous injection (bioluminescence imaging)", "conditions": "mRNA-loaded nanoparticles, intravenous (tail vein), 5 μg Luciferase-mRNA, 6 hours; for Fluorescence intensity of liver / Bioluminescence intensity: compounds of Example 1", "procedure": "as §1\nas §2, with “200” for “100”, “tail veins” for “the leg muscles”"}},
  "data": [
    {"smiles": "CCCC/C=C\\C/C=C\\CCCCCCCC(=O)N(C(C(=O)NCCN(C)CCNC(=O)C(C(C)C)N(C(=O)CCCCCCC/C=C\\C/C=C\\CCCCC)C(C)(CO)CO)C(C)C)C(C)(CO)CO", "note": "(stereo not drawn) [A1I4R29C18-2]", "values": [
      {"measurement": "Local fluorescence intensity", "setting": "C57BL/6 mice [1]; compounds of Example 2", "value": "2.99E+04"}
    ]},
    {"smiles": "CCCCCCCC/C=C\\CCCCCCCC(=O)N(CCOC)C(C(=O)NCCN(C)CCNC(=O)C(C1CCCCC1)N(CCOC)C(=O)CCCCCCC/C=C\\CCCCCCCC)C1CCCCC1", "note": "(stereo not drawn) [A23I4R23C18-1]", "values": [
      {"measurement": "Fluorescence intensity of spleen", "setting": "C57BL/6 mice [2]; compounds of Example 2", "value": "2.96E+05"},
      {"measurement": "Local fluorescence intensity", "setting": "C57BL/6 mice [1]; compounds of Example 2", "value": "5.87E+06"}
    ]},
    {"smiles": "CCCCCCCC/C=C\\CCCCCCCC(=O)N(CCC)C(C(=O)NCCN(C)CCNC(=O)C(C(C)C)N(CCC)C(=O)CCCCCCC/C=C\\CCCCCCCC)C(C)C", "note": "(stereo not drawn) [A1I4R21C18-1]", "values": [
      {"measurement": "Fluorescence intensity of spleen", "setting": "C57BL/6 mice [2]; compounds of Example 2", "value": "2.76E+05"},
      {"measurement": "Local fluorescence intensity", "setting": "C57BL/6 mice [1]; compounds of Example 2", "value": "2.26E+07"}
    ]},
    {"smiles": "CCCCCCCCCCCCCCCCCC(=O)N(CCOC)C(C(=O)NCCN(C)CCNC(=O)C(C(C)C)N(CCOC)C(=O)CCCCCCCCCCCCCCCCC)C(C)C", "note": "(stereo not drawn) [A1I4R23C18]", "values": [
      {"measurement": "Fluorescence intensity of spleen", "setting": "C57BL/6 mice [2]; compounds of Example 2", "value": "1.51E+05"},
      {"measurement": "Local fluorescence intensity", "setting": "C57BL/6 mice [1]; compounds of Example 2", "value": "7.53E+04"}
    ]},
    {"smiles": "CCCCC/C=C\\C/C=C\\CCCCCCCC(=O)N(CCN1CCCCC1)C(C(=O)NCCCCCCCCCCCCCCCCCC)C1CCCCC1", "note": "(stereo not drawn) [A23I18R12C18-2]", "values": [
      {"measurement": "Fluorescence intensity of liver", "setting": "C57BL/6 mice [2]", "value": "6.30E+03"},
      {"measurement": "Local fluorescence intensity", "setting": "C57BL/6 mice [1]; compounds of Example 1", "value": "2.01E+06"}
    ]},
    {"smiles": "CCCCCCCC/C=C\\CCCCCCCC(=O)N(CCCN(CC)CC)C(C(=O)NCCCCCCCCCCCCCCCCCC)C(CC)CCCC", "note": "(stereo not drawn) [A4I18R3C18-1]", "values": [
      {"measurement": "Bioluminescence intensity", "setting": "C57BL/6 mice [2]", "value": "1.39E+07"},
      {"measurement": "Local fluorescence intensity", "setting": "C57BL/6 mice [1]; compounds of Example 1", "value": "1.77E+07"}
    ]},
    {"smiles": "CCCCC/C=C\\C/C=C\\CCCCCCCC(=O)N(CCCN(C)C)C(C(=O)NCCCCCCCCCCCCCCCCCC)C(CC)CCCC", "note": "(stereo not drawn) [A4I18R2C18-2]", "values": [
      {"measurement": "Bioluminescence intensity", "setting": "C57BL/6 mice [2]", "value": "2.06E+07"},
      {"measurement": "Local fluorescence intensity", "setting": "C57BL/6 mice [1]; compounds of Example 1", "value": "2.97E+07"}
    ]},
    {"smiles": "CCCCCCCCCCCCNC(=O)C(C(C)C)N(CCN(CCN(C(=O)CO)C(C(=O)NCCCCCCCCCCCC)C(C)C)CCN(C(=O)CO)C(C(=O)NCCCCCCCCCCCC)C(C)C)C(=O)CO", "note": "(stereo not drawn) [A1I12R47C21]", "values": [
      {"measurement": "Fluorescence intensity of spleen", "setting": "C57BL/6 mice [2]; compounds of Example 5", "value": "3.10E+05"},
      {"measurement": "Local fluorescence intensity", "setting": "C57BL/6 mice [1]; compounds of Example 5", "value": "2.22E+05"}
    ]},
    {"smiles": "CCCCCCCC/C=C\\CCCCCCCC(=O)N(CCCN(C)C)C(C(=O)NCCCCCCCCCCCCCCCCCC)C(CC)CCCC", "note": "(stereo not drawn) [A4I18R2C18-1]", "values": [
      {"measurement": "Bioluminescence intensity", "setting": "C57BL/6 mice [2]", "value": "1.33E+07"},
      {"measurement": "Local fluorescence intensity", "setting": "C57BL/6 mice [1]; compounds of Example 1", "value": "1.32E+07"}
    ]},
    {"smiles": "CCCCC/C=C\\C/C=C\\CCCCCCCC(=O)N(CCCN1CCOCC1)C(C(=O)NCCCCCCCCCCCCCCCCCC)C(C)C", "note": "(stereo not drawn) [A1I18R5C18-2]", "values": [
      {"measurement": "Fluorescence intensity of liver", "setting": "C57BL/6 mice [2]", "value": "3.77E+03"},
      {"measurement": "Local fluorescence intensity", "setting": "C57BL/6 mice [1]; compounds of Example 1", "value": "8.15E+04"}
    ]},
    {"smiles": "CCCCC/C=C\\C/C=C\\CCCCCCCC(=O)N(CCN(CCN(C(=O)CCCCCCC/C=C\\C/C=C\\CCCCC)C(C(=O)NCCOC)C(C)C)CCN(C(=O)CCCCCCC/C=C\\C/C=C\\CCCCC)C(C(=O)NCCOC)C(C)C)C(C(=O)NCCOC)C(C)C", "note": "(stereo not drawn) [A1I31R47C18-2]", "values": [
      {"measurement": "Fluorescence intensity of spleen", "setting": "C57BL/6 mice [2]; compounds of Example 5", "value": "6.90E+04"},
      {"measurement": "Local fluorescence intensity", "setting": "C57BL/6 mice [1]; compounds of Example 5", "value": "2.24E+05"}
    ]},
    {"smiles": "CCCCCCCCCCSSCCC(=O)N(CCCC(=O)OCC)C(C(=O)NCCN(CCNC(=O)C(C(C)C)N(CCCC(=O)OCC)C(=O)CCSSCCCCCCCCCC)CCNC(=O)C(C(C)C)N(CCCC(=O)OCC)C(=O)CCSSCCCCCCCCCC)C(C)C", "note": "(stereo not drawn) [A1I5R39S15]", "values": [
      {"measurement": "Fluorescence intensity of spleen", "setting": "C57BL/6 mice [2]; compounds of Example 3", "value": "3.88E+04"},
      {"measurement": "Local fluorescence intensity", "setting": "C57BL/6 mice [1]; compounds of Example 3", "value": "2.15E+04"}
    ]},
    {"smiles": "CCCCCCCCCCSSCCC(=O)N(CCCOC(C)C)C(C(=O)NCCN(CCNC(=O)C(C(C)C)N(CCCOC(C)C)C(=O)CCSSCCCCCCCCCC)CCNC(=O)C(C(C)C)N(CCCOC(C)C)C(=O)CCSSCCCCCCCCCC)C(C)C", "note": "(stereo not drawn) [A1I5R32S15]", "values": [
      {"measurement": "Fluorescence intensity of spleen", "setting": "C57BL/6 mice [2]; compounds of Example 3", "value": "2.48E+05"},
      {"measurement": "Local fluorescence intensity", "setting": "C57BL/6 mice [1]; compounds of Example 3", "value": "1.18E+06"}
    ]},
    {"smiles": "CCCCCCCCCCSSCCC(=O)N(C(C(=O)NCCN(CCNC(=O)C(C(C)C)N(C(=O)CCSSCCCCCCCCCC)C(CO)(CO)CO)CCNC(=O)C(C(C)C)N(C(=O)CCSSCCCCCCCCCC)C(CO)(CO)CO)C(C)C)C(CO)(CO)CO", "note": "(stereo not drawn) [A1I5R30S15]", "values": [
      {"measurement": "Fluorescence intensity of spleen", "setting": "C57BL/6 mice [2]; compounds of Example 3", "value": "6.31E+04"},
      {"measurement": "Local fluorescence intensity", "setting": "C57BL/6 mice [1]; compounds of Example 3", "value": "7.77E+04"}
    ]},
    {"smiles": "CCCCCCCCCCSSCCC(=O)N(CC1CCCO1)C(C(=O)NCCN(CCNC(=O)C(C(C)C)N(CC1CCCO1)C(=O)CCSSCCCCCCCCCC)CCNC(=O)C(C(C)C)N(CC1CCCO1)C(=O)CCSSCCCCCCCCCC)C(C)C", "note": "(stereo not drawn) [A1I5R35S15]", "values": [
      {"measurement": "Fluorescence intensity of spleen", "setting": "C57BL/6 mice [2]; compounds of Example 3", "value": "3.21E+05"},
      {"measurement": "Local fluorescence intensity", "setting": "C57BL/6 mice [1]; compounds of Example 3", "value": "2.62E+06"}
    ]},
    {"smiles": "CCCC/C=C\\C/C=C\\CCCCCCCC(=O)N(CCCO)C(C(=O)NCCN(C)CCNC(=O)C(C(C)C)N(CCCO)C(=O)CCCCCCC/C=C\\C/C=C\\CCCCC)C(C)C", "note": "(stereo not drawn) [A1I4R42C18-2]", "values": [
      {"measurement": "Local fluorescence intensity", "setting": "C57BL/6 mice [1]; compounds of Example 2", "value": "7.04E+04"}
    ]},
    {"smiles": "CCCCC/C=C\\C/C=C\\CCCCCCCC(=O)N(CCCOC(C)C)C(C(=O)NCCN(C)CCNC(=O)C(C(C)C)N(CCCOC(C)C)C(=O)CCCCCCC/C=C\\C/C=C\\CCCCC)C(C)C", "note": "(stereo not drawn) [A1I4R32C18-2]", "values": [
      {"measurement": "Local fluorescence intensity", "setting": "C57BL/6 mice [1]; compounds of Example 2", "value": "2.57E+04"}
    ]},
    {"smiles": "CCCCC/C=C\\C/C=C\\CCCCCCCC(=O)N(CCCOCC)C(C(=O)NCCN(C)CCNC(=O)C(C(C)C)N(CCCOCC)C(=O)CCCCCCC/C=C\\C/C=C\\CCCCC)C(C)C", "note": "(stereo not drawn) [A1I4R31C18-2]", "values": [
      {"measurement": "Local fluorescence intensity", "setting": "C57BL/6 mice [1]; compounds of Example 2", "value": "5.21E+04"}
    ]},
    {"smiles": "CCCC/C=C\\C/C=C\\CCCCCCCC(=O)N(CCCOC)C(C(=O)NCCN(C)CCNC(=O)C(C(C)C)N(CCCOC)C(=O)CCCCCCC/C=C\\C/C=C\\CCCCC)C(C)C", "note": "(stereo not drawn) [A1I4R43C18-2]", "values": [
      {"measurement": "Local fluorescence intensity", "setting": "C57BL/6 mice [1]; compounds of Example 2", "value": "6.57E+04"}
    ]}
  ]
}
